Results from patent publication US20250304549A1, “HYDROXYAMIDE DERIVATIVE AND USE THEREOF” (SICHUAN HUIYU PHARMACEUTICAL CO., LTD., priority 2022, published 2025).
pIC50: −log10 of the molar value. Structures can show the parent of a compound that is named as a salt.

Tests used:
HDAC1 = HDAC1 (Homo sapiens (Human), UniProt Q13547); assay: In vitro enzyme inhibition assay - HDAC (HDAC-Glo I/II), HDAC1; format: biochemical; conditions: read-out: HDAC IC50 (nM) HDAC 1
Method: 2. In Vitro Enzyme Inhibition Assay—HDAC
The effect of the compound on the enzymatic activity of pan-HDAC and two isoforms (HDAC1 and HDAC8) was examined using the HDAC-Glo I/II Assay and Screening System assay to assess the level of inhibition of HDAC protease activity and selectivity in each isoform. The proteins and detection reagents were from the HDAC-Glo™ I/II Assay and Screening System (Promega). A 1 mM stock solution of the compound was prepared in DMSO and diluted in a 5-fold gradient to create a series of 8 concentrations, and a specific volume of the highest concentration was diluted 25 times with HDAC Buffer to obtain 4× working solution of the compound. […] The 384-well plate was then read on a multifunctional microplate reader, with the Luminescence channel selected to record Luminescence values (RLU). The inhibition rate was calculated using the following formula: […]
Note: ‘Negative’ refers to the group without the inhibitor; ‘Blank’ refers to the group without the enzyme.
The IC50 value was calculated by fitting the inhibition rate by GraphPad Prism software, employing log (inhibitor) vs. response-Variable Slope (four parameters) model.

pan-HDAC = assay: In vitro enzyme inhibition assay - HDAC (HDAC-Glo I/II), pan-HDAC; format: biochemical
Procedure, shortened: (§1)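 Eight compound concentrations (5-fold steps from a 1 mM DMSO stock) tested against pan-HDAC, HDAC1 and HDAC8 with HDAC-Glo I/II reagents, luminescence read-out. Percent inhibition normalized to no-inhibitor and no-enzyme wells; IC50 derived by four-parameter logistic fit.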

HDAC8 = HDAC8 (Homo sapiens (Human), UniProt Q9BY41); assay: In vitro enzyme inhibition assay - HDAC (HDAC-Glo I/II), HDAC8; format: biochemical; conditions: read-out: HDAC IC50 (nM) HDAC 8
Procedure, shortened: as §1

NCI-H1417 cells = assay: In vitro cell inhibition assay - H1417 cell proliferation (CellTiter-Glo); format: cell-based; conditions: Homo sapiens, NCI-H1417, H1417 small cell lung cancer cell proliferation
Procedure, shortened: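 Cells exposed to 8 compound concentrations (5-fold dilutions) in BEGM with 10% FBS for 7 days at 37° C., 5% CO2. Viable cells measured by CellTiter-Glo luminescence; inhibition versus no-inhibitor and no-cell controls, IC50 fitted.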

LSD1 = LSD1 (Homo sapiens (Human), UniProt O60341); assay: In vitro enzyme inhibition assay - LSD1 (HTRF); format: biochemical
NCI-H526 cells = assay: In vitro cell inhibition assay - NCI-H526 cell proliferation (CellTiter-Glo); format: cell-based; conditions: Homo sapiens, NCI-H526, 120 h, H526 small cell lung cancer cell proliferation, 5 days
Procedure, shortened: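 NCI-H526 cells plated at 1×10^3 per well overnight, then treated with 8 concentrations (5-fold dilutions) in RPMI-640 with 10% FBS for 5 days at 37° C., 5% CO2. Viable cells quantified by CellTiter-Glo luminescence; IC50 fitted from inhibition rates relative to no-inhibitor and no-cell controls.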

NCI-H69 cells = assay: In vitro cell inhibition assay - NCI-H69 cell proliferation (CellTiter-Glo); format: cell-based; conditions: Homo sapiens, NCI-H69, H69 small cell lung cancer cell proliferation
Procedure, shortened: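 7-day exposure at 37° C., 5% CO2 to compounds serially diluted 5-fold (8 concentrations) in RPMI-640 containing 20% FBS, after overnight attachment at 1×10^3 cells/well. Read-out: CellTiter-Glo luminescence (RLU); IC50 from curve fit of inhibition rate.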

Chain of HDAC1 (Q13547 whole entry): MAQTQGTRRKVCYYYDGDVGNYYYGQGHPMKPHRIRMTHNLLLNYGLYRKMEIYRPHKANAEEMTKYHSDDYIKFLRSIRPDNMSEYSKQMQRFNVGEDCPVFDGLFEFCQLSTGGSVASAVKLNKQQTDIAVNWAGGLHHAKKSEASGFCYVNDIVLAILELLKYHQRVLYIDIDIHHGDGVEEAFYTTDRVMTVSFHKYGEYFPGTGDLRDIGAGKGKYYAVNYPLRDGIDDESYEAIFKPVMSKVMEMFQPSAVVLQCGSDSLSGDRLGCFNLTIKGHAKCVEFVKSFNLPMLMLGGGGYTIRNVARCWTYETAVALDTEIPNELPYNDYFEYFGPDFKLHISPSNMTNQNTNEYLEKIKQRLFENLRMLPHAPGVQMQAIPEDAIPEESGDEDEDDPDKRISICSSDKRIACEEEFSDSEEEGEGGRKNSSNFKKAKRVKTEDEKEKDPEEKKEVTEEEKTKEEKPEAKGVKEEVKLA
Chain of HDAC8 (Q9BY41 whole entry): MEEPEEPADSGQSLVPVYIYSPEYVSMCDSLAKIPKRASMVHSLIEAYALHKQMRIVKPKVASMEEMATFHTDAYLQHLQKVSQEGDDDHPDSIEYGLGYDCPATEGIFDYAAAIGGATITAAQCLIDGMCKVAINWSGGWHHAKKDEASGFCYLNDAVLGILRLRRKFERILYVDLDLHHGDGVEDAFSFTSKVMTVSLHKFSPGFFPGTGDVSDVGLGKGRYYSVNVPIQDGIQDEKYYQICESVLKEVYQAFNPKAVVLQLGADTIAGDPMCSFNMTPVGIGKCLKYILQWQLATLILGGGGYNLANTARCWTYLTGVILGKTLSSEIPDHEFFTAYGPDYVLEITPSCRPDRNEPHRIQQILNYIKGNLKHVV

| Compound | IC50 (HDAC1) [nM] | IC50 (pan-HDAC) [nM] | IC50 (HDAC8) [nM] | pIC50 (NCI-H1417 cells) | pIC50 (LSD1) | pIC50 (NCI-H526 cells) | pIC50 (NCI-H69 cells) |
| --- | --- | --- | --- | --- | --- | --- | --- |
| COc1ccc(-c2cnc(N3CCC(NC(C)(C)c4ccc(/C=C/C(=O)NO)cc4)CC3)c(C#N)c2-c2ccc(C#N)c(F)c2)cc1O [Example 179, (E)-3-(4-(2-((1-(3-Cyano-4-(4-cyano-3-fluorophenyl)-5-(3-hydroxy-4-methoxyphenyl)pyridin-2-yl)piperidin-4-yl)amino)propan-2-yl)phenyl)-N-hydroxyacrylamide formate] | 1.74 | 3.1 | 374 | 8.44 | 7.00 | 8.35 | 8.56 |
| CC(C)(O)COc1ccc(-c2cnc(N3CCC(NCc4ccc(CCC(=O)NO)cc4)CC3)c(C#N)c2-c2ccc(C#N)c(F)c2)cc1O [Example 188, 3-(4-(((1-(3-Cyano-4-(4-cyano-3-fluorophenyl)-5-(3-hydroxy-4-(2-hydroxy-2-methylpropoxy)phenyl)pyridin-2-yl)piperidin-4-yl)amino)methyl)phenyl)-N-hydroxypropanamide formate] | 3.06 | 5.07 | 198 | 8.76 | 9.52 | 7.09 | 7.53 |
| COc1ccc(-c2cnc(N3CCC(NCc4ccc(OCC(=O)NO)cc4)CC3)c(C#N)c2-c2ccc(C#N)c(F)c2)cc1O [Example 181] | 0.08 | 2.11 | 75.1 | 8.53 | 9.89 | 7.55 | 7.88 |
| N#Cc1ccc(-c2c(-c3ccc(N4CCOCC4)c(O)c3)cnc(N3CCC(NCc4ccc(/C=C/C(=O)NO)cc4)CC3)c2C#N)cc1F [Example 203, (E)-3-(4-(((1-(3-Cyano-4-(4-cyano-3-fluorophenyl)-5-(3-hydroxy-4-morpholinophenyl)pyridin-2-yl)piperidin-4-yl)amino)methyl)phenyl-N-hydroxyacrylamide formate] | 1.58 | 1.39 | 25.3 | 8.70 | 8.99 | 7.91 | 8.03 |
| Cc1c(N2CCC(NCc3ccc(/C=C/C(=O)NO)cc3)CC2)ncc(-c2ccc(OCC(C)(C)O)c(O)c2)c1-c1ccc(C#N)c(F)c1 [Example 207, (E)-3-(4-(((1-(4-(4-Cyano-3-fluorophenyl)-5-(3-hydroxy-4-(2-hydroxy-2-methylpropoxy)phenyl)-3-methylpyridin-2-yl)piperidin-4-yl)amino)methyl)phenyl)-N-hydroxyacrylamide hydrochloride] | 2.51 | 12.4 | 170 | 8.02 | 8.18 | 7.58 | 7.47 |
| N#Cc1ccc(-c2c(-c3ccc4cn[nH]c4c3)cnc(N3CCC(NCc4cnc(/C=C/C(=O)NO)nc4)CC3)c2C#N)cc1F [Example 184, (E)-3-(5-((1-(3-Cyano-4-(4-cyano-3-fluorophenyl)-5-(1H-indazol-6-yl)pyridin-2-yl)piperidin-4-yl)amino)methyl) pyrimidin-2-yl)-N-hydroxyacrylamide formate] | 1.69 | 6.58 | 45.2 | 7.99 | 10.05 | 7.80 | 8.05 |
| CC(C)(O)COc1ccc(-c2cnc(N3CCC(NCc4ccc(/C=C/C(=O)NO)cn4)CC3)c(C#N)c2-c2ccc(C#N)c(F)c2)cc1O [Example 205, (E)-3-(6-(((1-(3-Cyano-4-(4-cyano-3-fluorophenyl)-5-(3-hydroxy-4-(2-hydroxy-2-methylpropoxy)phenyl)pyridin-2-yl)piperidin-4-yl)amino)methyl)pyridin-3-yl)-N-hydroxyacrylamide formate] | 3.08 | 4.37 | 100 | 8.16 | 8.72 | 7.41 | 7.60 |
| CC(C)(O)COc1ccc(-c2cnc(N3CCC(NCc4ccc(/C=C/C(=O)NO)c(C#N)c4)CC3)c(C#N)c2-c2ccc(C#N)c(F)c2)cc1O [Example 189, (E)-3-(2-Cyano-4-((1-(3-cyano-4-(4-cyano-3-fluorophenyl)-5-(3-hydroxy-4-(2-hydroxy-2-methylpropoxy)phenyl)pyridin-2-yl)piperidin-4-yl)amino)methyl) phenyl)-N-hydroxyacrylamide formate] | 13.4 | 7.8 | 130 | 8.20 | 8.39 | 7.56 | 7.41 |
| CC(C)(O)COc1ccc(-c2cnc(N3CCC(NCc4ccc(OCC(=O)NO)cc4)CC3)c(C#N)c2-c2ccc(C#N)c(F)c2)cc1O [Example 192, 2-(4-(((1-(3-cyano-4-(4-cyano-3-fluorophenyl)-5-(3-hydroxy-4-(2-hydroxy-2-methylpropoxy)phenyl)pyridin-2-yl)piperidin-4-yl)amino)methyl)phenoxy)-N-hydroxyacetamide formate] | 1.49 | 2.75 | 64.9 | 8.70 | 9.35 | 7.09 | 7.55 |
| COc1ccc(-c2cnc(N3CCC(NCc4ccc(/C=C/C(=O)NO)cc4)CC3)c(C#N)c2-c2ccc(C#N)nc2)cc1O [Example 208, (E)-3-(4-(((1-(3′,6-Dicyano-5′-(3-hydroxy-4-methoxyphenyl)-[3,4′-bipyridin]-2′-yl)piperidin-4-yl)amino)methyl)phenyl)-N-hydroxyacrylamide] | 1.74 | 1.13 | 17.2 | 8.66 | 9.14 | 8.42 | 8.34 |
| N#Cc1ccc(-c2c(-c3ccc4cn[nH]c4c3)cnc(N3CCC(NCc4ccc(/C=C/C(=O)NO)nc4)CC3)c2C#N)cc1F [Example 182, (E)-3-(5-(((1-(3-Cyano-4-(4-cyano-3-fluorophenyl)-5-(1H-indazol-6-yl)pyridin-2-yl)piperidin-4-yl)amino)methyl)pyridin-2-yl)-N-hydroxyacrylamide formate] | 1.3 | 3.02 | 30.1 | 8.03 | 10.05 | 8.15 | 8.36 |
| COc1ccc(-c2cnc(N3CCC(NC(C)c4ccc(/C=C/C(=O)NO)cc4)CC3)c(C#N)c2-c2ccc(C#N)c(F)c2)cc1O (centres unmarked) [Example 210, (E)-3-(4-(1-((1-(3-Cyano-4-(4-cyano-3-fluorophenyl)-5-(3-hydroxy-4-methoxyphenyl)pyridin-2-yl)piperidin-4-yl)amino)ethyl)phenyl)-N-hydroxyacrylamide formate] | 4.44 | 2.5 | 456 | 8.45 | 8.95 | 8.23 | 7.82 |
| COc1ccc(-c2cnc(N3CCC(C)(NCc4cnc(/C=C/C(=O)NO)nc4)CC3)c(C#N)c2-c2ccc(C#N)c(F)c2)cc1O [Example 206, (E)-3-(5-(((1-(3-Cyano-4-(4-cyano-3-fluorophenyl)-5-(3-hydroxy-4-methoxyphenyl)pyridin-2-yl)-4-methylpiperidin-4-yl)amino)methyl)pyrimidin-2-yl)-N-hydroxyacrylamide formate] | 32.9 | 11.5 | 32.5 | 8.21 | 8.69 | 6.97 | 7.02 |
| COc1ccc(-c2cnc(N3CCC(NCc4cnc(/C=C/C(=O)NO)nc4)CC3)c(C)c2-c2ccc(C#N)c(F)c2)cc1O [Example 202, (E)-3-(5-(((1-(4-(4-Cyano-3-fluorophenyl)-5-(3-hydroxy-4-methoxyphenyl)-3-methylpyridin-2-yl)piperidin-4-yl)amino)methyl)pyrimidin-2-yl)-N-hydroxyacrylamide formate] | 0.88 | 1.85 | 9.03 | 8.21 | 7.13 | 8.36 | 7.87 |
